Molecules are shown by their SMILES.

For the data set, the system named is jck mice. Kind of data set: jck mouse model of polycystic kidney disease, 0.225% Compound A in feed, 26-64 days of age. It counts as in vivo. As to conditions: for K/BW ratio (%) / Body weight / BUN / Cystic volume (% BW): treated, 26-64 days of age; for K/BW ratio (%) / Body weight: 0.225% in feed ad libitum; for Body weight: at sacrifice; for BUN / Cystic volume (% BW): 0.225% in feed; for Cystic volume (% BW): percentage cystic area multiplied by kidney/body weight ratio. The procedure: jck mice was administered Compound A ad libitum in feed (0.225% Compound A mixed with a standard diet chow in powdered format) from 26-64 days of age. Control jck mice were fed a control powdered diet from 26-64 days of age. At 63 days of age, animals were transferred to metabolic cages for 24 hour urine collection. At 64 days of age, animals were sacrificed by CO2 administration. Blood was collected by heart puncture for serum isolation. Kidneys were isolated and bisected; half of each kidney was fixed in 4% paraformaldehyde in PBS overnight for paraffin embedding and H&E staining.
Total body weight and kidney weight were determined at sacrifice.
Cyst volume was measured by quantitating the percentage of cystic area in histological sections of kidneys from the treated and control animals, multiplied by the kidney/body weight ratio.
Blood urea nitrogen (BUN) levels were determined in serum samples derived from animals at sacrifice.

Where [1] appears, read: treated vs control jck mice, p-value<0.05, two-tailed t-test.

Turning to `CCCCCCCCC(=O)N[C@H](CN1CCCC1)[C@H](O)c1ccc2c(c1)OCCO2` [Compound A, N-((1R,2R)-1-(2,3-dihydrobenzo[1,4|]dioxin-6-yl)-1-hydroxy-3-(pyrrolidin-1-yl)propan-2-yl)nonanamide], under “female jck mice”, the “K/BW ratio (%)” value was 3.57 ± 0.58 %, the “Body weight” value is on record as 15.93 ± 1.65 g and the “Cystic volume (% BW)” value came to 0.58 ± 0.29 % BW. In addition, the “BUN” value (female jck mice, serum at sacrifice) came to 34.67 ± 9.41 mg/dL. Also, the “cystic disease, as measured by kidney/body weight ratio and cyst volume” value (in feed at 0.225%, both males and females) is “statistically significant reduction”. For the same compound, the “PKD in a mouse model” value (jck mice) is given as “Effectively Inhibited PKD”. Also, where the note is “male jck mice”, the “K/BW ratio (%)” value stood at 4.46 ± 0.46 %, the “Body weight” value is 18.43 ± 1.82 g and the “Cystic volume (% BW)” value is on record as 0.88 ± 0.23 % BW. The “BUN” value (male jck mice, serum at sacrifice) is given as 39.25 ± 10.70 mg/dL. Besides, under “treated animals relative to controls, in feed at 0.225%, both males and females”, the renal function entry is given as “improved renal function”. Also, under setting [1], the cyst volume entry is given as “significant decrease”, the “kidney weight/body weight ratio” value is on record as “significant difference” and the total body weight result was “statistically significant decrease”. The BUN levels entry (treated vs untreated control jck mice, serum at sacrifice, p-value<0.05, two-tailed t-test) is “significant reduction”.

The values are drawn from patent US10220039B2, “Method of treating polycystic kidney diseases with ceramide derivatives” (Genzyme Corporation, priority 2007, dated 2019).
